Measured values as given in PMC10263210, “Design, Synthesis and Biological Evaluation of Novel MDH Inhibitors Targeting Tumor Microenvironment” (Pharmaceuticals, 2023).

Columns and labels:
H460 lung cancer cells = test: Cell growth inhibition assay (SRB), H460; format: cell-based; conditions: Homo sapiens, NCI-H460, means of three experiments, read-out: Cell Viability IC50 H460
Description: (§1) At the same time, we investigated the effect of the compounds on the growth inhibition of A549 and H460 lung cancer cells bearing KRAS and LKB1 mutations. […] Compound 50 containing a piperidine linker was selected for further analysis.
(§2) Human lung carcinoma A549 cells were cultured in Dulbecco’s modified Eagle’s medium and H460 cells were cultured in RPMI 1640 medium containing 10% fetal bovine serum and 1% penicillin/streptomycin at 37 °C with a 5% Co2 hypoxia experimental condition. The cells were grown in the hypoxia chamber (1% O2, 94% N2, and 5% Co2 in a multigas incubator)
(§3) Cell growth inhibition was assessed using sulforhodamine B (SRB) as described in [34]. The cells were fixed with 10% formalin (Sigma-Aldrich) and stained with 0.4% SRB. Protein-bound dye was dissolved in 10 mM of Tris, and its optical density was measured at 540 nm.

human recombinant MDH1 = biological target: T1, human recombinant MDH1 (Homo sapiens, UniProt P40925); test: MDH1 enzyme activity assay (oxaloacetate-dependent NADH oxidation); format: biochemical; conditions: means of three experiments
T1 construct: purchased BioVision
T1 sequence (P40925 1-334): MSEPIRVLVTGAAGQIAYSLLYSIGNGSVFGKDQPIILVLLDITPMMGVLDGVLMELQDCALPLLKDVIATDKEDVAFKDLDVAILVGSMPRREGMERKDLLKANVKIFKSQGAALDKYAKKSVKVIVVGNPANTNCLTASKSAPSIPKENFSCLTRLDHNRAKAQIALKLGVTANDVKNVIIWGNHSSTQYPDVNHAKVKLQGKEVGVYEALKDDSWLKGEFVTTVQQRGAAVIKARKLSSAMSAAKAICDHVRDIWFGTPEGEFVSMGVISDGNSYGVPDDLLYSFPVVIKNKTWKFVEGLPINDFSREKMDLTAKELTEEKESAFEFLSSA
From the text: (§4) To develop the dual inhibitors of MDH1 and MDH2, we screened the newly synthesized LW1497 derivatives using MDH and MDH2 enzyme assays. LW1497 was used as the positive control for the MDH1/2 dual inhibitor. We evaluated the ability of the synthesized compounds to inhibit human recombinant MDH1 and MDH2 enzymatic activity using an oxaloacetate-dependent NADH oxidation assay (Table 1, Table 2, Table 3, Table 4, Table 5 and Table 6). Our SAR optimization strategy focused on four different parts of LW1497: (A) the introduction of various groups at different positions on the amide phenyl ring; (B) the replacement of the 3-(4-(2,4,4-trimethylpentan-2-yl) alkyl chain; (C) the alteration of the amide portion; and (D) the modification of the oxypropanamide linker portion (Figure 1).
(§5) The activities of MDH1 and MDH2 were confirmed using an oxaloacetate-dependent NADH oxidation assay. Experiments were conducted using 100 mM of potassium phosphate buffer (pH 7.4) and human recombinant MDH1 (BioVision) and MDH2 (BioVision), and the results were obtained by measuring the absorbance at 340 nm. Enzyme activity was measured using a plate reader at a wavelength of 340 nm.

A549 lung cancer cells = test: Cell growth inhibition assay (SRB), A549; format: cell-based; conditions: Homo sapiens, means of three experiments, read-out: Cell Viability IC50 A549
Description: as §1, §2, §3

human recombinant MDH2 = biological target: T2, human recombinant MDH2 (Homo sapiens, UniProt P40926); test: MDH2 enzyme activity assay (oxaloacetate-dependent NADH oxidation); format: biochemical; conditions: means of three experiments
T2 construct: purchased BioVision
T2 sequence (P40926 25-338): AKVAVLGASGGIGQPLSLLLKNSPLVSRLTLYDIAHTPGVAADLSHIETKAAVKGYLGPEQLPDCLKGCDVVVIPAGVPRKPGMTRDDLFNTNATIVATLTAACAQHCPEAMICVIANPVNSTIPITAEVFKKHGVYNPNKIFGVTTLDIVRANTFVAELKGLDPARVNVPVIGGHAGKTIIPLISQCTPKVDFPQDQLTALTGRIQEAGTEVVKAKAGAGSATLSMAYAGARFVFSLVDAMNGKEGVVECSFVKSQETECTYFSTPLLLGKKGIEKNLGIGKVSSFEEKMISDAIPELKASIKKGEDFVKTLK
From the text: as §4, §5

Row | Compound | melting point [°C] | IC50 (H460 lung cancer cells) [µM] | IC50 (human recombinant MDH1) [µM] | IC50 (A549 lung cancer cells) [µM] | IC50 (human recombinant MDH2) [µM]
1 | COc1cccc(NC(=O)CCOc2ccc(C(C)(C)CC(C)(C)C)cc2)c1 [Compound 5a, N-(3-Methoxyphenyl)-3-(4-(2,4,4-trimethylpentan-2-yl)phenoxy)propanamide] | 97 to 99 | 8.83 ± 0.34 | 6.18 ± 0.74 | 11.1 ± 0.77 | 1.5 ± 0.01
2 | CC(C)(C)CC(C)(C)c1ccc(OCCC(=O)Nc2cccc(C#N)c2)cc1 [Compound 5b, N-(3-Cyanophenyl)-3-(4-(2,4,4-trimethylpentan-2-yl)phenoxy)propanamide] | 112 to 114 | 5.84 ± 0.74 | 6.96 ± 0.12 | 5.25 ± 0.21 | 2 ± 0.05
3 | CC(C)(C)CC(C)(C)c1ccc(OCCC(=O)Nc2cccc(C(F)(F)F)c2)cc1 [Compound 5c, N-(3-(Trifluoromethyl)phenyl)-3-(4-(2,4,4-trimethylpentan-2-yl)phenoxy)propanamide] | 88 to 90 | 5.68 ± 0.23 | 8.35 ± 2.86 | 6.47 ± 0.06 | 1.04
4 | CC(C)(C)CC(C)(C)c1ccc(OCCC(=O)Nc2cccc(OC(F)(F)F)c2)cc1 [Compound 5d, N-(3-(Trifluoromethoxy)phenyl)-3-(4-(2,4,4-trimethylpentan-2-yl)phenoxy)propanamide] |  | 6.81 ± 0.04 | 0.94 ± 0.05 | 6.42 ± 0.06 | 1.24 ± 0.13
5 | CC(C)(C)CC(C)(C)c1ccc(OCCC(=O)Nc2ccccc2OC(F)(F)F)cc1 [Compound 5e, N-(2-(Trifluoromethoxy)phenyl)-3-(4-(2,4,4-trimethylpentan-2-yl)phenoxy)propanamide] |  | > 10 | 3.14 ± 0.14 | > 10 | 3.09 ± 0.2
6 | CC(C)(C)CC(C)(C)c1ccc(OCCC(=O)Nc2ccc(OC(F)(F)F)cc2)cc1 [Compound 5f, N-(4-(Trifluoromethoxy)phenyl)-3-(4-(2,4,4-trimethylpentan-2-yl)phenoxy)propanamide] |  | 3.77 ± 0.02 | 3.45 ± 0.07 | 5.97 ± 0.71 | 2.12 ± 0.21
7 | CC(C)(C)CCc1ccc(OCCC(=O)Nc2cccc(OC(F)(F)F)c2)cc1 [Compound 14] |  | 12.8 ± 1.36 | 3.05 ± 0.29 | 14.44 ± 0.1 | 1.53 ± 0.08
8 | CC(C)(C)CNc1ccc(OCCC(=O)Nc2cccc(OC(F)(F)F)c2)cc1 [Compound 21, 3-(4-(Neopentylamino)phenoxy)-N-(3-(trifluoromethoxy)phenyl)propanamide] |  | > 10 | > 5 | > 10 | > 5
9 | CN(CC(C)(C)C)c1ccc(OCCC(=O)Nc2cccc(OC(F)(F)F)c2)cc1 [Compound 22, 3-(4-(Methyl(neopentyl)amino)phenoxy)-N-(3-(trifluoromethoxy)phenyl)propanamide] |  | > 10 | > 5 | > 10 | 3.13 ± 0.29
10 | CC(C)(O)CC(C)(C)c1ccc(OCCC(=O)Nc2cccc(OC(F)(F)F)c2)cc1 [Compound 30, 3-(4-(4-Hydroxy-2,4-dimethylpentan-2-yl)phenoxy)-N-(3-(trifluoromethoxy)phenyl)propanamide] |  |  | > 5 | 8.28 ± 0.76 | > 5
11 | CC(C)(C)CC(C)(C)c1ccc(N2CCN(C(=O)c3cccc(OC(F)(F)F)c3)CC2)cc1 [Compound 51, (3-(Trifluoromethoxy)phenyl)(4-(4-(2,4,4-trimethylpentan-2-yl)phenyl)piperazin-1-yl)methanone] | 102 to 104 | 18.4 ± 1.55 | 5 ± 2.49 | > 20 | > 5
12 | CC(C)(C)CC(C)(C)c1ccc(NCCC(=O)Nc2cccc(OC(F)(F)F)c2)cc1 [Compound 56, N-(3-(Trifluoromethoxy)phenyl)-3-((4-(2,4,4-trimethylpentan-2-yl)phenyl)amino)propanamide] |  | 5.3 ± 0.01 | 1.79 ± 0.04 | 6.06 ± 0.01 | 3.18 ± 0.18

Now from value to molecule:

Row | melting point [°C] | IC50 (H460 lung cancer cells) [µM] | IC50 (human recombinant MDH1) [µM] | IC50 (A549 lung cancer cells) [µM] | IC50 (human recombinant MDH2) [µM] | Compound
13 | 132 to 134 | > 10 | 0.78 ± 0.08 | > 10 | 1.38 ± 0.59 | O=C(CCOc1ccc(-c2ccccc2)cc1)Nc1cccc(OC(F)(F)F)c1 [Compound 35a, 3-([1,1′-Biphenyl]-4-yloxy)-N-(3-(trifluoromethoxy)phenyl)propanamide]
14 | 101 to 103 | > 10 | > 5 | > 10 | > 5 | O=C(CCOc1ccc(-c2ccc(F)cc2)cc1)Nc1cccc(OC(F)(F)F)c1 [Compound 35b, 3-((4′-Fluoro-[1,1′-biphenyl]-4-yl)oxy)-N-(3-(trifluoromethoxy)phenyl)propanamide]
15 | 82 to 85 | > 20 | > 5 | > 20 | > 5 | O=C(CCOc1ccc2ccccc2c1)Nc1cccc(OC(F)(F)F)c1 [Compound 39a, 3-(Naphthalen-2-yloxy)-N-(3-(trifluoromethoxy)phenyl)propanamide]
16 | 113 to 115 | 14.86 ± 0.07 | 1.61 ± 0.25 | 14.2 ± 0.2 | > 5 | O=C(CCOc1ccc2ccc(Br)cc2c1)Nc1cccc(OC(F)(F)F)c1 [Compound 39b]
17 | 128 to 130 | 14.8 ± 0.18 | 1.61 ± 0.21 | 17.7 ± 0.18 | > 5 | O=C(CCOc1ccc2cc(Br)ccc2c1)Nc1cccc(OC(F)(F)F)c1 [Compound 39c, 3-((6-Bromonaphthalen-2-yl)oxy)-N-(3-(trifluoromethoxy)phenyl)propanamide]
18 | 102 to 104 |  | 2.25 ± 0.77 | > 20 | 18.3 ± 1.8 | O=C(CCOc1ccc2cc(F)ccc2c1)Nc1cccc(OC(F)(F)F)c1 [Compound 39d, 3-((6-Fluoronaphthalen-2-yl)oxy)-N-(3-(trifluoromethoxy)phenyl)propanamide]
19 | 65 to 67 | 12.4 ± 0.21 | 3.15 ± 0.11 | 13.2 ± 1.3 | 2.22 ± 0.28 | CC(C)(C)CC(C)(C)c1ccc(OCCNC(=O)c2cccc(OC(F)(F)F)c2)cc1 [Compound 44a, 3-(Trifluoromethoxy)-N-(2-(4-(2,4,4-trimethylpentan-2-yl)phenoxy)ethyl)benzamide]
20 |  | 7.61 ± 0.24 |  | 7.32 ± 0.02 | > 5 | CC(C)(C)CC(C)(C)c1ccc(OCCNS(=O)(=O)c2cccc(OC(F)(F)F)c2)cc1 [Compound 44b, 3-(Trifluoromethoxy)-N-(2-(4-(2,4,4-trimethylpentan-2-yl)phenoxy)ethyl)benzenesulfonamide]
21 |  | 6.06 ± 0.06 | 1.61 ± 0.02 | 6.47 ± 0.06 | 1.09 ± 0.06 | CC(C)N(CCC(=O)Nc1cccc(OC(F)(F)F)c1)c1ccc(C(C)(C)CC(C)(C)C)cc1 [Compound 57b, 3-(Isopropyl(4-(2,4,4-trimethylpentan-2-yl)phenyl)amino)-N-(3-(trifluoromethoxy)phenyl)propanamide]
22 |  | 7.11 ± 0.03 | 2.16 ± 0.01 | 7.24 ± 0.11 | 1.18 ± 0.01 | CC(C)(C)CC(C)(C)c1ccc(N(CCC(=O)Nc2cccc(OC(F)(F)F)c2)C2CCC2)cc1 [Compound 57c, 3-(Cyclobutyl(4-(2,4,4-trimethylpentan-2-yl)phenyl)amino)-N-(3-(trifluoromethoxy)phenyl)propanamide]
23 | 164 to 166 | > 20 | 1.41 ± 0.47 | > 20 | > 5 | CC(=O)N(CCC(=O)Nc1cccc(OC(F)(F)F)c1)c1ccc(C(C)(C)CC(C)(C)C)cc1 [Compound 57d, N-(3-(Trifluoromethoxy)phenyl)-3-(N-(4-(2,4,4-trimethylpentan-2-yl)phenyl)acetamido)propanamide]
